Entries after “also recorded” stand apart in the source; their conditions may differ.
Tests used:
sperm calcineurin = sperm calcineurin (Mus musculus, UniProt P26883+P48455+Q63811); test: calcineurin activity in sperm; type: biochemical
Description: The effect of calcineurin inhibitor on GSK3αβ phosphorylation was studied by Western blot procedure. Calcium dependence of calcineurin mediated GSK3α regulation was also checked. Both GSK3 activity and Calcineurin activity were measured in presence of FK506. […] A) Modulation of phospho-serine/tyrosine profile GSK3α by FK506 (20 nM) during capacitation; for capacitation spermatozoa were incubated with ‘capacitation medium’, HTF or TYH for ˜90 min. B) phosphor-serine GSK3α status was checked during capacitation with TYH medium having high fatty acid containing BSA. C) Possible involvement of AKT in mediation of calcineurin induced regulation of GSK3α. D) Validation of involvement of extracellular calcium in GSK3α regulation; no calcium salt was added in the ‘−Ca^2+’ set, 10 μM BAPTA-AM was used to chelate intra-sperm Ca^2+ ions; CatSper1 phosphorylation was compared between wild type and ppp3r2 knockout sperm extract E) GSK3 activity of sperm cells under capacitating condition was checked using p^32radioactive ATP for phosphorylation of substrate. F) Co-relation among intracellular free calcium levels of different maturational stages of sperm cells with calcineurin activity was measured; for negative control, 20 nM of FK506 was used.

mouse caudal spermatozoa [1] = test: in vitro fertilization (IVF) with inhibitor-treated spermatozoa, two-cell stage formation; type: cell-based
Description: Nanomolar doses of FK506 were used to treat spermatozoa and then use those cells were used for in vitro fertilization (IVF) assays. The treated spermatozoa were exposed to three different types oocyte conditions while performing IVF: a) regular IVF with intact oocyte-cumulus complex, b) cumulus-free intact oocyte and c) cumulus-free zona-free oocyte.
A) Spermatozoa were incubated under capacitating medium (viz. […] Additionally, oocytes were also incubated with same concentration of FK506, which it encounters during the IVF, the corresponding spermatozoa set was untreated. […] B) Dose response curve of FK506 at 0, 2.5, 5, 10, 20 & 50 nM concentration.

[2] = 0.1% tacrolimus formulations; cited from earlier work
mouse sperm = test: sperm motility / hyperactivation by computer assisted sperm analyzer (CASA); type: cell-based; settings: FK506 treatment 120-180 min, capacitation; FIG. 2B
Description: Another set of treated sperm cell was analyzed for its motility parameters using computer assisted sperm analyzer (CASA). Average path velocity (VAP), curvilinear velocity (VCL) and amplitude of lateral head displacement (ALH) were measured to assess hyperactivation. FIG. 2 illustrates the detection of FK506 induced defect in sperm motility and oocyte penetration. A) FK506 (20 nM) treated spermatozoa were used for both cumulus free zona intact oocytes as well as zona-free oocytes. B) Effect of FK506 treatment for (120-180 min) on sperm hyperactivation controlling parameters; VAP: average path velocity, VCL: curvilinear velocity, ALH: lateral head amplitude.

mouse caudal spermatozoa [3] = test: IVF of treated spermatozoa with cumulus-free zona-free oocytes; type: cell-based; settings: FK506 20 nM, FIG. 2A
Description: Nanomolar doses of FK506 were used to treat spermatozoa and then use those cells were used for in vitro fertilization (IVF) assays. The treated spermatozoa were exposed to three different types oocyte conditions while performing IVF: a) regular IVF with intact oocyte-cumulus complex, b) cumulus-free intact oocyte and c) cumulus-free zona-free oocyte. FIG. 2 illustrates the detection of FK506 induced defect in sperm motility and oocyte penetration. A) FK506 (20 nM) treated spermatozoa were used for both cumulus free zona intact oocytes as well as zona-free oocytes. B) Effect of FK506 treatment for (120-180 min) on sperm hyperactivation controlling parameters; VAP: average path velocity, VCL: curvilinear velocity, ALH: lateral head amplitude.

oocytes = test: IVF with oocytes pre-incubated with inhibitor, spermatozoa untreated; type: cell-based, mouse; settings: oocytes incubated with same concentration of FK506 (20 nM)
Description: FIG. 1 illustrates the effect of treatments of mouse caudal spermatozoa with calcineurin and GSK3 inhibitors on in vitro fertilization, indicated by two-cell stage formation. A) Spermatozoa were incubated under capacitating medium (viz. […] Additionally, oocytes were also incubated with same concentration of FK506, which it encounters during the IVF, the corresponding spermatozoa set was untreated. All data represent mean±SEM of n=3 for all the values. *p≤0.05 versus control. B) Dose response curve of FK506 at 0, 2.5, 5, 10, 20 & 50 nM concentration. C) Representative images showing effect of FK506 on IVF; black triangles directing the two-cell stage after fertilization of eggs.

GSK3α = test: GSK3 phosphorylation in sperm by Western blot; type: cell-based, mouse; settings: FK506 20 nM during capacitation
Description: (§1) The effect of calcineurin inhibitor on GSK3αβ phosphorylation was studied by Western blot procedure. Calcium dependence of calcineurin mediated GSK3α regulation was also checked. Both GSK3 activity and Calcineurin activity were measured in presence of FK506. FIG. 3 illustrates the regulation of GSK3α in mouse sperm by FK506. A) Modulation of phospho-serine/tyrosine profile GSK3α by FK506 (20 nM) during capacitation; for capacitation spermatozoa were incubated with ‘capacitation medium’, HTF or TYH for ˜90 min. B) phosphor-serine GSK3α status was checked during capacitation with TYH medium having high fatty acid containing BSA. C) Possible involvement of AKT in mediation of calcineurin induced regulation of GSK3α. D) Validation of involvement of extracellular calcium in GSK3α regulation; no calcium salt was added in the ‘−Ca^2+’ set, 10 μM BAPTA-AM was used to chelate intra-sperm Ca^2+ ions; […] phosphorylation was compared between wild type and ppp3r2 knockout sperm extract E) GSK3 activity of sperm cells under capacitating condition was checked using p^32radioactive ATP for phosphorylation of substrate. F) Co-relation among intracellular free calcium levels of different maturational stages of sperm cells with calcineurin activity was measured; for negative control, 20 nM of FK506 was used. All data represent mean±SEM of n=4 for all the values. *p≤0.05, **p≤0.01 versus control.

[4] = cited from earlier work
sperm GSK3 = test: GSK3 activity of sperm cells with p32 radioactive ATP; type: biochemical, mouse; settings: capacitating condition
Description: as §1

With `C=CC[C@@H]1/C=C(\C)C[C@H](C)C[C@H](OC)[C@H]2O[C@@](O)(C(=O)C(=O)N3CCCC[C@H]3C(=O)O[C@H](/C(C)=C/[C@@H]3CC[C@@H](O)[C@H](OC)C3)[C@H](C)[C@@H](O)CC1=O)[C@H](C)C[C@@H]2OC` [FK506, tacrolimus] the “inhibition of sperm calcineurin” value (sperm calcineurin) was “inhibits sperm calcineurin at nanomolar level”, the “inhibition of sperm ability to fertilize eggs in vitro, dose response” value (mouse caudal spermatozoa [1]; FK506 at 0, 2.5, 5, 10, 20 & 50 nM) was “good enough to inhibit” and the “inhibition of fertilizing ability of sperm in vitro” value (mouse caudal spermatozoa [1]; sperm incubated 1 hr at 37° C. in capacitating medium, FK506 20 nM, cyclosporin A 10 μM, two-cell stage formation, FIG. 1A) was “significantly and independently inhibit; also recorded: inhibited fertilization”. The skin side effects [2] was “increased sensitivity of skin, burning, stinging or itching sensations”, the “hyperactivation of sperm (VAP, VCL, ALH)” value (mouse sperm) was “mostly unable to exhibit hyperactivity; also recorded: lack of attainment of hyperactivation” and the “fertilization of zona-free eggs by treated sperm” value (mouse caudal spermatozoa [3]) was “not affecting sperm cells to fertilize zona-free eggs”. The “reduction in fertilization after pre-treatment of oocytes” value (oocytes) was “did not result in any reduction in fertilization”, the “net phosphorylation of sperm GSK3” value (GSK3α) was “increase in the net phosphorylation” and the “titer of the drug in blood” value ([4]; 0.1% tacrolimus formulations) was “nanomolar titer”. For the same compound, the “bioavailability from an ointment formulation” value ([4]; topical ointment) was ~0.5% and the “catalytic activity of sperm GSK3” value (sperm GSK3) was “decrease in catalytic activity”.

From patent US20220249598A1, “COMPOSITIONS TARGETING SPERM CALCINEURIN” (Kent State University, priority 2019, published 2022)
